SMILES strings stand for the structures. In brackets after ≈: the same amount, converted by molar mass.

The assay concerns Mycobacterium tuberculosis. Description: Antimycobacterial activity against Mycobacterium bovis BCG after 28 days. It counts as functional. The settings on record: variant bovis BCG, 672 h.

The MIC is the lowest concentration found to suppress growth. High values mean a need for much substance, low ones inhibition by little substance. The compound `COc1ccc(-c2cc(-c3cc(OC)ccc3O)[nH]n2)cc1` yielded an MIC of 34 µM (≈ 10.1 µg/mL).

Values taken from ChEMBL document CHEMBL2375319, “Design, synthesis and structure-activity relationships of 3,5-diaryl-1H-pyrazoles as inhibitors of arylamine N-acetyltransferase” (Bioorg Med Chem Lett, 2013).
